Experimental findings from patent US20240189319A1, “RIFAMYCIN ANALOGS IN COMBINATION WITH VANCOMYCIN AND USES THEREOF” (Regeneron Pharmaceuticals, Inc, priority 2021, published 2024) are described below.

Test [1] concerns S. aureus MRSA strain NRS384. Description: S. aureus IV advanced disseminated infection mouse model, strain NRS384 (kidney burden). The test is classed as in vivo, Staphylococcus aureus. The following applies: for kidney burden reduction in combination with vancomycin, compared with rifampicin plus vancomycin (in words): Example 3B versus Example 3A; for kidney burden, combination with vancomycin versus vancomycin alone (in words): 0.01-0.25 mg/kg + vancomycin. The method, then: (§1) To test the efficacy of rifamycin analogs (I) and (II) according to the disclosure in combination therapy with vancomycin in vivo, a 4-day intravenous disseminated infection model was utilized. S. aureus MSRA strain NRS384 or N315, where indicated, was grown overnight in tryptic soy broth (TSB) and sub-cultured to mid-logarithmic phase. Bacteria were then washed twice with PBS and resuspended in PBS at a concentration of 1.5×10^8 cfu/mL NRS384 or 6.0×10^8 N315. Six-week-old Balb/c mice were then infected intravenously through the tail vein with 100 uL of the bacterial suspension, for a final infectious dose of 1.5×10^7 cfu/mouse NRS384 or 6.0×10^7 N315. From one to three days post infection, indicated mice were treated with 110 mg/kg vancomycin subcutaneously twice daily where indicated. Rifamycin analogs (I) or (II) were administered subcutaneously at the indicated dose two days after infection. Mice were monitored for weight loss and body conditioning score throughout the infection. At four days post infection, mice were euthanized, and the S. aureus kidney burden was quantified by tissue homogenization followed by enumeration of colony forming units through serial dilution in PBS and plating onto trypticase soy agar plates. Data points represent the kidney burden from individual mice tested.
In this experiment, mice infected with S. aureus MSRA strain NRS384 were treated with vancomycin alone (control) or vancomycin in combination with 0.002 mg/kg to 25 mg/kg rifampicin, a commercially-available rifamycin analog control.
In this experiment, mice infected with S. aureus MSRA strain NRS384 were treated with vancomycin alone (control) or vancomycin in combination with 0.01-0.25 mg/kg rifamycin analog (I) or 0.01-0.25 mg/kg rifamycin analog (II).
In this experiment, mice infected with S. aureus MSRA strain NRS384 were treated with 25 mg/kg rifampicin (control) or 0.002-0.25 mg/kg rifamycin analog (II) alone or in combination with vancomycin, with vancomycin alone as a control.

Test [2] has as its system S. aureus MRSA strain N315. The experiment in a line: S. aureus IV advanced disseminated infection mouse model, strain N315 (kidney burden). The format is in vivo, Staphylococcus aureus. The following applies: for kidney burden relative to limit of detection (in words) / Median cfu/kidney pair / bacterial load relative to limit of detection (in words): Example 3D; for Median cfu/kidney pair: day 4, LOD 250. The method, then: as §1
In this experiment, mice infected with S. aureus MSRA strain N315 were treated with 25 mg/kg rifampicin (control), or 0.01-0.75 mg/kg rifamycin analog (I), or 0.002-0.25 mg/kg rifamycin analog (II) in combination with vancomycin, with vancomycin alone as a control.

Setting [3] is: Example 3B, dose 0.01 mg/kg sc day 2 + vancomycin 110 mg/kg twice daily, day 4, LOD 250.
Setting [4] is: Example 3B, dose 0.05 mg/kg sc day 2 + vancomycin 110 mg/kg twice daily, day 4, LOD 250.
Where [5] appears, read: Example 3B, dose 0.25 mg/kg sc day 2 + vancomycin 110 mg/kg twice daily, day 4, LOD 250.
[6] abbreviates: dose 0.01 mg/kg + vancomycin 110 mg/kg twice daily.
Setting [7] is: dose 0.05 mg/kg + vancomycin 110 mg/kg twice daily.
Setting [8] is: dose 0.25 mg/kg + vancomycin 110 mg/kg twice daily.

For the compound `CO[C@H]1/C=C/O[C@@]2(C)Oc3c(C)c(O)c4c(=O)c(c5oc6cc(OCCN(C)C)cc(O)c6nc-5c4c3C2=O)NC(=O)/C(C)=C\C=C\[C@H](C)[C@H](O)[C@@H](C)[C@@H](O)[C@@H](C)[C@H](OC(C)=O)[C@@H]1C` [Rifamycin analog (I)], in test [1], the “kidney burden reduction in combination with vancomycin, compared with rifampicin plus vancomycin (in words)” value was “effective at reducing S. aureus kidney burden at lower doses than rifampicin”. Moreover, in test [1] (Example 3B), the “kidney burden, combination with vancomycin versus vancomycin alone (in words)” value is recorded as “further reduced kidney burden”. For the same compound, the Median cfu/kidney pair was 5.88E+04 cfu/kidney pair in test [1] (setting [3]); 5.75E+03 cfu/kidney pair in test [1] (setting [4]); 2.50E+02 cfu/kidney pair in test [1] (setting [5]); 2.50E+02 cfu/kidney pair in test [2] (setting [6]); 2.50E+02 cfu/kidney pair in test [2] (setting [7]); 2.50E+02 cfu/kidney pair in test [2] (setting [8]). Moreover, the Median cfu/kidney pair in test [2] (dose 0.75 mg/kg + vancomycin 110 mg/kg twice daily) is 2.50E+02 cfu/kidney pair. Also, the “kidney burden relative to limit of detection (in words)” value in test [2] (0.01-0.75 mg/kg + vancomycin) is reported as “at or near the limit of detection”. The “bacterial load relative to limit of detection (in words)” value in test [2] (dose of 0.01 mg/kg in combination with vancomycin) is listed as “below the limit of detection”.
Regarding `CO[C@H]1/C=C/O[C@@]2(C)Oc3c(C)c(O)c4c(=O)c(c5oc6cc(OCCN(C)C)ccc6nc-5c4c3C2=O)NC(=O)/C(C)=C\C=C\[C@H](C)[C@H](O)[C@@H](C)[C@@H](O)[C@@H](C)[C@H](OC(C)=O)[C@@H]1C` [Rifamycin analog (II)], the “reduction in S. aureus kidney burden” value in test [1] (0.25 mg/kg as a monotherapy (Example 3C)) was around 3 logs. Further, the “kidney burden reduction in combination with vancomycin, compared with rifampicin plus vancomycin (in words)” value in test [1] is listed as “effective at reducing S. aureus kidney burden at lower doses than rifampicin”. In test [1] (Example 3B), the “kidney burden, combination with vancomycin versus vancomycin alone (in words)” value is listed as “further reduced kidney burden”. The Median cfu/kidney pair was 2.50E+02 cfu/kidney pair in test [1] (setting [3]); 2.50E+02 cfu/kidney pair in test [1] (setting [4]); 3.38E+05 cfu/kidney pair in test [1] (setting [5]); 2.50E+02 cfu/kidney pair in test [1] (Example 3C, dose 0.002 mg/kg + vancomycin 110 mg/kg twice daily, day 4, LOD 250); 2.75E+07 cfu/kidney pair in test [1] (Example 3C, dose 0.002 mg/kg, without vancomycin, day 4, LOD 250); 2.50E+02 cfu/kidney pair in test [1] (Example 3C, dose 0.01 mg/kg + vancomycin 110 mg/kg twice daily, day 4, LOD 250). Moreover, the Median cfu/kidney pair turned out to be 5.13E+06 cfu/kidney pair in test [1] (Example 3C, dose 0.01 mg/kg, without vancomycin, day 4, LOD 250); 2.50E+02 cfu/kidney pair in test [1] (Example 3C, dose 0.05 mg/kg + vancomycin 110 mg/kg twice daily, day 4, LOD 250); 1.52E+08 cfu/kidney pair in test [1] (Example 3C, dose 0.05 mg/kg, without vancomycin, day 4, LOD 250); 3.75E+02 cfu/kidney pair in test [1] (Example 3C, dose 0.25 mg/kg + vancomycin 110 mg/kg twice daily, day 4, LOD 250); 2.13E+04 cfu/kidney pair in test [1] (Example 3C, dose 0.25 mg/kg, without vancomycin (monotherapy), day 4, LOD 250); 2.50E+02 cfu/kidney pair in test [2] (dose 0.002 mg/kg + vancomycin 110 mg/kg twice daily). For the same compound, the Median cfu/kidney pair came out at 2.50E+02 cfu/kidney pair in test [2] (setting [6]), 6.25E+02 cfu/kidney pair in test [2] (setting [7]) and 2.50E+02 cfu/kidney pair in test [2] (setting [8]). Further, in test [1] (Example 3B, lowest tested dose 0.01 mg/kg + vancomycin), the “S. aureus kidney burden relative to limit of detection (in words)” value is recorded as “below the limit of detection”. Further, the “combination with vancomycin versus monotherapies in reducing bacterial burden (in words)” value in test [1] (Example 3C) is “more effective than either monotherapy”. In test [1] (Example 3C), the “efficacy when rifamycin analog (II) and vancomycin are used in combination (in words)” value is reported as “enhanced”. In addition, the “bacterial load relative to limit of detection (in words)” value is on record as “below the limit of detection” in test [1] (Example 3C, low doses including 0.05 and 0.002 mg/kg, in combination with vancomycin); “below the limit of detection” in test [2] (dose of 0.002 mg/kg in combination with vancomycin). Also, the “kidney burden relative to limit of detection (in words)” value in test [2] (0.002-0.25 mg/kg + vancomycin) is on record as “at or near the limit of detection”.
On to Vancomycin [reference compound], for which the Median cfu/kidney pair was 1.30E+06 cfu/kidney pair in test [1] (Example 3A, Balb/c mice, vancomycin alone 110 mg/kg sc twice daily days 1-3, day 4 post infection, limit of detection 250); 3.50E+06 cfu/kidney pair in test [1] (Example 3B, vancomycin alone 110 mg/kg sc twice daily, day 4, LOD 250); 1.13E+06 cfu/kidney pair in test [1] (Example 3C, vancomycin alone 110 mg/kg sc twice daily, day 4, LOD 250); 3.88E+04 cfu/kidney pair in test [2] (vancomycin alone 110 mg/kg sc twice daily). Moreover, in test [1] (Example 3C), the “efficacy when rifamycin analog (II) and vancomycin are used in combination (in words)” value is reported as “enhanced”. Also, the “reduction in S. aureus kidney burden” value in test [1] (vancomycin treatment alone (Examples 3A, 3B, 3C)) is given as 2-3 log; in test [2] (vancomycin treatment alone (Example 3D)), around 4 log.
`CO[C@H]1/C=C/O[C@@]2(C)Oc3c(C)c(O)c4c(O)c(c(/C=N/N5CCN(C)CC5)c(O)c4c3C2=O)NC(=O)/C(C)=C\C=C\[C@H](C)[C@H](O)[C@@H](C)[C@@H](O)[C@@H](C)[C@H](OC(C)=O)[C@@H]1C` [Rifampicin, reference compound]: the Median cfu/kidney pair in test [1] (Example 3A, dose 0.002 mg/kg + vancomycin 110 mg/kg twice daily, day 4, LOD 250) came to 3.38E+06 cfu/kidney pair; in test [1] (Example 3A, dose 0.01 mg/kg + vancomycin 110 mg/kg twice daily, day 4, LOD 250), 3.00E+06 cfu/kidney pair; in test [1] (Example 3A, dose 0.05 mg/kg + vancomycin 110 mg/kg twice daily, day 4, LOD 250), 2.75E+06 cfu/kidney pair; in test [1] (Example 3A, dose 0.25 mg/kg + vancomycin 110 mg/kg twice daily, day 4, LOD 250), 2.50E+02 cfu/kidney pair; in test [1] (Example 3A, dose 25 mg/kg + vancomycin 110 mg/kg twice daily, day 4, LOD 250) it was 2.50E+02 cfu/kidney pair; in test [1] (Example 3C, dose 25 mg/kg + vancomycin 110 mg/kg twice daily, day 4, LOD 250), 2.50E+02 cfu/kidney pair. Further, the Median cfu/kidney pair worked out at 7.07E+08 cfu/kidney pair in test [1] (Example 3C, dose 25 mg/kg, without vancomycin, day 4, LOD 250) and 2.50E+02 cfu/kidney pair in test [2] (dose 25 mg/kg + vancomycin 110 mg/kg twice daily).
